In patent publication US12637478B2, “Compound, preparation method thereof, and antibiotic composition comprising same” (priority 2020, dated 2026):
Values after ≈ are worked out from the molar mass of the structure shown. Like-named read-outs stand apart in the source and are kept apart here.

How the values were obtained:
[1] = tested on: E. faecium^LinR; experiment: MIC by broth microdilution (aerobic pathogens), test strain 12; assay type: cell-based, Linezolid resistant Enterococcus faecium; conditions: Enterococcus faecium
Protocol: (§1) The antibacterial activity of the compounds of Examples 1 to 48 of the present invention against aerobic pathogens were evaluated by measuring the minimum concentration of the antibiotic capable of inhibiting bacterial growth by 90% compared to the growth of the non-drug treated control group. MIC was measured by the broth microdilution method based on CLSI standards [Reference: Clinical and Laboratory Standards Institute Document. (2000) Methods for Dilution Antimicrobial Susceptibility Test for Bacteria that Grow Aerobically-Fifth Edition: M7-A5. CLSI, Villanova, PA].
(§2) All 13 strains such as methicillin susceptible Staphylococcus aureus (MSSA), methicillin resistant Staphylococcus aureus (MRSA), Vancomycin resistant Staphylococcus aureus (VRSA), Staphylococcus epidermidis, methicillin resistant Staphylococcus epidermidis, Enterococcus faecalis, Vancomycin resistant Enterococcus faecalis, Enterococcus faecium, Vancomycin resistant Enterococcus faecium were used.

[2] = tested on: S. epidermis^MR; experiment: MIC by broth microdilution (aerobic pathogens), test strain 6; assay type: cell-based, Methicillin resistant Staphylococcus epidermidis; conditions: Staphylococcus epidermidis
Summary of the method: (§3)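 Broth microdilution per CLSI M7-A5 standards was used. MIC was taken as the lowest antibiotic concentration inhibiting bacterial growth by 90% relative to the untreated growth control.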

[3] = tested on: E. faecalis^LinR; experiment: MIC by broth microdilution (aerobic pathogens), test strain 9; assay type: cell-based, Linezolid resistant Enterococcus faecalis; conditions: Enterococcus faecalis
Summary of the method: as §3

[4] = tested on: E. faecalis; experiment: MIC by broth microdilution (aerobic pathogens), test strain 7; assay type: cell-based; conditions: Enterococcus faecalis
Summary of the method: as §3

[5] = tested on: S. aureus^MS; experiment: MIC by broth microdilution (aerobic pathogens), test strain 2; assay type: cell-based; conditions: Staphylococcus aureus
Summary of the method: as §3

[6] = tested on: E. faecalis^VanA; experiment: MIC by broth microdilution (aerobic pathogens), test strain 8; assay type: cell-based, Vancomycin resistant Enterococcus faecalis; conditions: Enterococcus faecalis
Summary of the method: as §3

[7] = tested on: S. aureus^MR; experiment: MIC by broth microdilution (aerobic pathogens), test strain 3; assay type: cell-based, Methicillin resistant Staphylococcus aureus; conditions: Staphylococcus aureus
Protocol: as §1, §2

[8] = tested on: M. avium; experiment: MIC by resazurin (REMA) assay against Mycobacterium, test strain 21; assay type: cell-based
Protocol: (§4) In order to test the antibacterial activity, the medium of Mycobacterium cultured to late log phase was diluted so as to be 4.0×10^5 cells/well in Middlebrook 7H10 agar medium (Difco) supplemented with 10% oleic acid, albumin, dextrose, catalase (OADC, Becton Dickinson) and 0.05% Tween 80 (Sigma Aldrich) and was dispensed into a 96-well plate. The compounds were treated so that DMSO was 1%, and after 3 days, a 0.025% resazurin (REMA) solution was dispensed, and the growth of the bacteria was confirmed after culturing. The MIC value was measured for the antibacterial activity through resazurin (excitation 530 nm, emission 590 nm).

[9] = tested on: M. intracelluare; experiment: MIC by resazurin (REMA) assay against Mycobacterium, test strain 22; assay type: cell-based; conditions: Mycobacterium intracellulare
Protocol: as §4

[10] = tested on: S. aureus^MS; experiment: MIC by broth microdilution (aerobic pathogens), test strain 1; assay type: cell-based; conditions: Staphylococcus aureus
Summary of the method: as §3

[11] = tested on: M. abscessus; experiment: MIC by resazurin (REMA) assay against Mycobacterium, test strain 23; assay type: cell-based; conditions: Mycobacteroides abscessus
Protocol: as §4

[12] = tested on: S. epidermis; experiment: MIC by broth microdilution (aerobic pathogens), test strain 5; assay type: cell-based; conditions: Staphylococcus epidermidis
Summary of the method: as §3

[13] = tested on: S. aureus^VR; experiment: MIC by broth microdilution (aerobic pathogens), test strain 4; assay type: cell-based, Vancomycin resistant Staphylococcus aureus; conditions: Staphylococcus aureus
Protocol: as §1, §2

[14] = tested on: E. faecium; experiment: MIC by broth microdilution (aerobic pathogens), test strain 10; assay type: cell-based; conditions: Enterococcus faecium
Summary of the method: as §3

[15] = tested on: E. faecium^VRE; experiment: MIC by broth microdilution (aerobic pathogens), test strain 11; assay type: cell-based, Vancomycin resistant Enterococcus faecium; conditions: Enterococcus faecium, VRE
Protocol: as §1, §2

[16] = tested on: C. difficile 173; experiment: MIC by agar dilution against Clostridioides difficile, test strain 17; assay type: cell-based; conditions: 173
[17] = tested on: C. difficile 174; experiment: MIC by agar dilution against Clostridioides difficile, test strain 18; assay type: cell-based; conditions: 174
[18] = tested on: C. difficile 152; experiment: MIC by agar dilution against Clostridioides difficile, test strain 14; assay type: cell-based; conditions: 152
[19] = tested on: C. difficile 181; experiment: MIC by agar dilution against Clostridioides difficile, test strain 19; assay type: cell-based; conditions: 181
[20] = tested on: C. difficile 9689; experiment: MIC by agar dilution against Clostridioides difficile, test strain 13; assay type: cell-based; conditions: 9689
[21] = tested on: C. difficile 159; experiment: MIC by agar dilution against Clostridioides difficile, test strain 15; assay type: cell-based; conditions: 159
[22] = test strain 6, S. epidermis^MR (methicillin resistant), read-out: MIC
[23] = test strain 9, E. faecalis^LinR (linezolid resistant), read-out: MIC
[24] = test strain 2, S. aureus^MS, read-out: MIC
[25] = test strain 1, S. aureus^MS, read-out: MIC
[26] = test strain 21, M. avium, resazurin, read-out: MIC
[27] = test strain 22, M. intracelluare, resazurin, read-out: MIC
[28] = test strain 23, M. abscessus, resazurin, read-out: MIC

SMILES | MIC [2, 22] [µg/mL] | MIC [3, 23] [µg/mL] | MIC [4] [µg/mL] | MIC [5, 24] [µg/mL] | MIC [8] [µg/mL] | MIC [9] [µg/mL] | MIC [10, 25] [µg/mL] | MIC [11] [µg/mL] | MIC [12] [µg/mL] | MIC [8, 26] [µg/mL] | MIC [9, 27] [µg/mL] | MIC [11, 28] [µg/mL] | MIC [2] [µg/mL] | MIC [3] [µg/mL] | MIC [5] [µg/mL] | MIC [10] [µg/mL] | MIC [14] [µg/mL] | also measured
C/C=C1\NC(=O)[C@H]([C@@H](C)O)NC(=O)c2csc(n2)-c2ccc(-c3nc(-c4nc(C(=O)NC5(C(=O)NCCN6CCN(C)CC6)CC5)cs4)cs3)nc2-c2csc(n2)[C@H]([C@@H](C)O)NC(=O)c2csc(n2)[C@H](C(C)C)NC(=O)c2csc1n2 [Compound 4] | 0.5 (≈ 0.412 µM) | 1 (≈ 0.825 µM) | 0.25 (≈ 0.206 µM) | 0.5 (≈ 0.412 µM) | 0.115 (≈ 0.0948 µM) | 0.143 (≈ 0.118 µM) | 0.5 (≈ 0.412 µM) | 0.157 (≈ 0.129 µM) | 0.25 (≈ 0.206 µM) | – | – | – | – | – | – | – | – | MIC ([1]; test strain 12, E. faecium^LinR (linezolid resistant), read-out: MIC): 1 µg/mL (≈ 0.825 µM); MIC ([6]; test strain 8, E. faecalis^VanA (vancomycin resistant), read-out: MIC): 0.5 µg/mL (≈ 0.412 µM); MIC ([7]; test strain 3, S. aureus^MR (methicillin resistant), read-out: MIC): 1 µg/mL (≈ 0.825 µM); MIC ([13]; test strain 4, S. aureus^VR (vancomycin resistant), read-out: MIC): 1 µg/mL (≈ 0.825 µM); MIC ([14]; test strain 10, E. faecium, read-out: MIC): 0.5 µg/mL (≈ 0.412 µM)
C/C=C1\NC(=O)[C@H]([C@@H](C)O)NC(=O)c2csc(n2)-c2ccc(-c3nc(-c4nc(C(=O)NC5(C(=O)NCCN6CCN(CCO)CC6)CC5)cs4)cs3)nc2-c2csc(n2)[C@H]([C@@H](C)O)NC(=O)c2csc(n2)[C@H](C(C)C)NC(=O)c2csc1n2 [Compound 32] | – | – | – | 0.5 (≈ 0.402 µM) | – | – | 0.5 (≈ 0.402 µM) | – | – | 0.153 (≈ 0.123 µM) | 0.116 (≈ 0.0934 µM) | 0.153 (≈ 0.123 µM) | – | – | – | – | – | –
C/C=C1\NC(=O)[C@H]([C@@H](C)O)NC(=O)c2csc(n2)-c2ccc(-c3nc(-c4nc(C(=O)NC5(C(=O)NCCN6CCN(C[C@@H](O)CO)CC6)CC5)cs4)cs3)nc2-c2csc(n2)[C@H]([C@@H](C)O)NC(=O)c2csc(n2)[C@H](C(C)C)NC(=O)c2csc1n2 [Compound 28] | – | 0.5 (≈ 0.393 µM) | – | 0.5 (≈ 0.393 µM) | – | – | 0.25 (≈ 0.196 µM) | – | – | 0.13 (≈ 0.102 µM) | 0.115 (≈ 0.0904 µM) | 0.49 (≈ 0.385 µM) | – | – | – | – | – | –
C/C=C1\NC(=O)[C@H]([C@@H](C)O)NC(=O)c2csc(n2)-c2ccc(-c3nc(-c4nc(C(=O)NC5(C(=O)NCCCN6C(=O)NC(C)C6=O)CC5)cs4)cs3)nc2-c2csc(n2)[C@H]([C@@H](C)O)NC(=O)c2csc(n2)[C@H](C(C)C)NC(=O)c2csc1n2 (stereo partly drawn) [Compound 37] | – | – | 0.5 (≈ 0.403 µM) | – | 0.082 (≈ 0.0661 µM) | – | – | – | 0.25 (≈ 0.202 µM) | – | – | – | 0.25 (≈ 0.202 µM) | 1 (≈ 0.806 µM) | 0.25 (≈ 0.202 µM) | 0.25 (≈ 0.202 µM) | 0.5 (≈ 0.403 µM) | MIC [15]: 1 µg/mL (≈ 0.806 µM)
C/C=C1\NC(=O)[C@H]([C@@H](C)O)NC(=O)c2csc(n2)-c2ccc(-c3nc(-c4nc(C(=O)NC5(C(=O)NCCN6C(=O)CNC6=O)CC5)cs4)cs3)nc2-c2csc(n2)[C@H]([C@@H](C)O)NC(=O)c2csc(n2)[C@H](C(C)C)NC(=O)c2csc1n2 [Compound 5] | – | – | 0.25 (≈ 0.206 µM) | – | 0.043 (≈ 0.0355 µM) | 0.155 (≈ 0.128 µM) | – | 0.504 (≈ 0.416 µM) | 0.5 (≈ 0.412 µM) | – | – | – | 0.5 (≈ 0.412 µM) | 0.5 (≈ 0.412 µM) | 0.25 (≈ 0.206 µM) | 0.25 (≈ 0.206 µM) | 1 (≈ 0.825 µM) | MIC [16]: 1 µg/mL (≈ 0.825 µM); MIC [1]: 0.5 µg/mL (≈ 0.412 µM); MIC [17]: 0.25 µg/mL (≈ 0.206 µM); MIC [18]: 0.5 µg/mL (≈ 0.412 µM); MIC [6]: 0.5 µg/mL (≈ 0.412 µM); MIC [7]: 1 µg/mL (≈ 0.825 µM); MIC [19]: 0.125 µg/mL (≈ 0.103 µM); MIC [20]: 1 µg/mL (≈ 0.825 µM); MIC [13]: 1 µg/mL (≈ 0.825 µM); MIC [21]: 1 µg/mL (≈ 0.825 µM)
C/C=C1\NC(=O)[C@H]([C@@H](C)O)NC(=O)c2csc(n2)-c2ccc(-c3nc(-c4nc(C(=O)NC5(C(=O)NCCN6CCN(S(C)(=O)=O)CC6)CC5)cs4)cs3)nc2-c2csc(n2)[C@H]([C@@H](C)O)NC(=O)c2csc(n2)[C@H](C(C)C)NC(=O)c2csc1n2 [Compound 29] | 0.5 (≈ 0.392 µM) | 0.25 (≈ 0.196 µM) | – | 0.25 (≈ 0.196 µM) | – | – | 0.25 (≈ 0.196 µM) | – | – | 0.161 (≈ 0.126 µM) | 0.13 (≈ 0.102 µM) | 0.43 (≈ 0.337 µM) | – | – | – | – | – | MIC ([4]; test strain 7, E. faecalis, read-out: MIC): 1 µg/mL (≈ 0.783 µM); MIC ([12]; test strain 5, S. epidermis, read-out: MIC): 0.5 µg/mL (≈ 0.392 µM)
